The source of these data is patent US10358435B2, “Triazolyl pyrimidinone compounds as PDE2 inhibitors” (Merck Sharp & Dohme Corp., priority 2015, dated 2019).

pKi: −log10 of the molar value.

The target of the first experiment is human PDE2A1 (Homo sapiens (Human), UniProt O00408). As to the kind of experiment: IMAP fluorescence polarization assay, human PDE2A1 (PDE selectivity panel). The format is biochemical.
Chain of human PDE2A1 (O00408 other isoform, or with tags, fused parts or gaps): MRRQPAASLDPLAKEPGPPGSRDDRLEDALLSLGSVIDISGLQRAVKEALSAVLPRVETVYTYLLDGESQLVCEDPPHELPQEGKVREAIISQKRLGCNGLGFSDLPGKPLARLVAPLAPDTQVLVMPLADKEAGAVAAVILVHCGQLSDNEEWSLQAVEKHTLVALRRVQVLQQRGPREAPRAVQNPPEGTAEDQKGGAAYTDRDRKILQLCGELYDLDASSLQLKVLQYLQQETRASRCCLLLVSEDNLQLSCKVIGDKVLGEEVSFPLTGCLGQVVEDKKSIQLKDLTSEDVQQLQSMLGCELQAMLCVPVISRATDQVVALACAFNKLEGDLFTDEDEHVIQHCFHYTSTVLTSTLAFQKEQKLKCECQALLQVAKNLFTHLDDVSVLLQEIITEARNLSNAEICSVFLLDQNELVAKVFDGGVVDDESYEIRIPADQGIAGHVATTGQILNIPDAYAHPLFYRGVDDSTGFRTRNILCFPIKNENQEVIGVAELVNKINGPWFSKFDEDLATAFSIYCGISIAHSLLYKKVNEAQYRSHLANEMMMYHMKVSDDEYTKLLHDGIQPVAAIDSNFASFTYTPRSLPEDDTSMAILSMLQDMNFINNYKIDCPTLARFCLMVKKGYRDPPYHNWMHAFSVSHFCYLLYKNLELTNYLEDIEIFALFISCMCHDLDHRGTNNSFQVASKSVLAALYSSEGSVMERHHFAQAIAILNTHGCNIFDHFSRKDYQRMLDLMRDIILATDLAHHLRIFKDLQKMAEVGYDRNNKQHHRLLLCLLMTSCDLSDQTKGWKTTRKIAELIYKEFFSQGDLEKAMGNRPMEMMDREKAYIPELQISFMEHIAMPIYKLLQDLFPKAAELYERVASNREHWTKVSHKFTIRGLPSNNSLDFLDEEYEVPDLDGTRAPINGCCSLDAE
Conditions: not given
As to the method:
The activity of the compounds in accordance with the present invention as PDE2 inhibitors may be readily determined using a fluorescence polarization (FP) methodology (Huang, W., et al., J. Biomol Screen, 2002, 7: 215).
Dose-inhibition profiles for each compound were characterized by fitting the mP data to a four-parameter equation given below.
Selectivity for PDE2, as compared to other PDE families, was assessed using the IMAP® technology. Human PDE10A2 enzyme was prepared from cytosolic fractions of transiently transfected HEK cells. All other PDE's were GST Tag human enzyme expressed in insect cells and were obtained from BPS Bioscience (San Diego, Calif.): PDE1A (Cat#60010), human PDE2A1 (Cat#60020), PDE3A (Cat#60030), PDE4A1A (Cat#60040), PDE5A1 (Cat#60050), PDE6C (Cat#60060), PDE7A (Cat#60070), PDE8A1 (Cat#60080), PDE9A2 (Cat#60090), PDE11A4 (Cat#60110).
Assays for PDE 1 through 11 were performed in parallel at room temperature in 384-well microtiter plates with an incubation volume of 20.2 μL. Solutions of test compounds were prepared in DMSO and serially diluted with DMSO to yield 30 μL of each of ten solutions differing by 3-fold in concentration, at 32 serial dilutions per plate. […] A Labcyte POD 810 (Labcyte, Sunnyvale, Calif.) was used to dispense 200 nL from each well of the titration plate to make eleven copies of the assay plate for each titration, one copy for each PDE enzyme. A solution of each enzyme (dilution from aliquots, sufficient to produce 20% substrate conversion) and a separate solution of FAM-labeled cAMP or FAM-labeled cGMP from Molecular Devices (Sunnyvale, Calif., product # R7506 or cGMP#R7508), at a final concentration of 50 nM were made in the assay buffer (10 mM Tris HCl, pH 7.2, 10 mM MgCl2, 0.05% NaN3 0.01% Tween-20, and 1 mM DTT). Note that the substrate for PDE2 is 50 nM FAM cAMP containing 1000 nM of cGMP. The enzyme and the substrate were then added to the assay plates in two consecutive additions of 10 μL and then shaken to mix. The reaction was allowed to proceed at room temperature for 60 minutes. A binding solution was then made from the kit components, comprised of 80% Solution A, 20% Solution B and binding reagent at a volume of 1/600 the total binding solution. The enzymatic reaction was stopped by addition of 60 μL of the binding solution to each well of the assay plate. The plates were sealed and shaken for 10 seconds. The plates were incubated at room temperature for one hour, then the parallel and perpendicular fluorescence was measured using a Tecan Genios Pro plate reader (Tecan, Switzerland). The apparent inhibition constants for the compounds against all 11 PDE's was determined from the parallel and perpendicular fluorescent readings as described for PDE10 FP assay using the following apparent KM values for each enzyme and substrate combination: PDE1A (FAM cGMP) 70 nM, human PDE2A1 (FAM cAMP) 10,000 nM, PDE3A (FAM cAMP) 50 nM, PDE4A1A (FAM cAMP) 1500 nM, PDE5A1 (FAM cGMP) 400 nM, PDE6C (FAM cGMP) 700 nM, PDE7A (FAM cAMP) 150 nM, PDE8A1 (FAM cAMP) 50 nM, PDE9A2 (FAM cGMP) 60 nM, PDE10A2 (FAM cAMP) 150 nM, PDE11A4 (FAM cAMP) 1000 nM. The intrinsic PDE2 inhibitory activity of a compound which may be used in accordance with the present invention may be determined by these assays.
As for `Cc1nc(-c2nnc(C(C)c3ccc(C(F)(F)F)cc3Cl)n2C)cc(=O)[nH]1` (single isomer, unassigned) [Example 67, (R)- or (S)-6-(5-(1-(2-chloro-4-(trifluoromethyl)-phenyl)ethyl)-4-methyl-4H-1,2,4-triazol-3-yl)-2-methylpyrimidin-4(3H)-one], the inhibition at 3 µM amounted to 17%.

The same experiment, now with this note: FAM cAMP 50 nM with 1000 nM cGMP.
On to `Cc1nc(-c2nnc(C(C)c3ccc(C(F)(F)F)cc3Cl)n2C)cc(=O)[nH]1` (single isomer, unassigned) [Example 68, (S)- or (R)-6-(5-(1-(2-chloro-4-(trifluoromethyl)-phenyl)ethyl)-4-methyl-4H-1,2,4-triazol-3-yl)-2-methylpyrimidin-4(3H)-one], for which the pKi is 8.11.
The same measure, in the same setting: then `Cc1nc(-c2nnc3n2CCC[C@H]3c2ccc(C(F)(F)F)cc2)cc(=O)[nH]1` (single isomer, unassigned) [Example 70], with 7.27.
The same measure, in the same setting: then `Cc1nc(-c2nnc3n2CCCC3(C)c2ccc(C(F)(F)F)cc2)cc(=O)[nH]1` (single isomer, unassigned) [Example 72, (S)- or (R)-2-methyl-6-(8-methyl-8-(4-(trifluoromethyl)phenyl)-5,6,7,8-tetrahydro-[1,2,4]triazolo[4,3-a]pyridin-3-yl)pyrimidin-4(3H)-one], with 6.06.
Take `Cc1nc(-c2nnc3n2CCCC3(C)c2ccc(C(F)(F)F)cc2)cc(=O)[nH]1` (single isomer, unassigned) [Example 73, (S)- or (R)-2-methyl-6-(8-methyl-8-(4-(trifluoromethyl)phenyl)-5,6,7,8-tetrahydro-[1,2,4]triazolo[4,3-a]pyridin-3-yl)pyrimidin-4(3H)-one]: the negative-log Ki (pKi) is 7.57.
On the same count and under the same terms, then `Cc1nc(-n2cc([C@H](C)c3ccc(C(F)(F)F)cc3Cl)nn2)cc(=O)[nH]1` (single isomer, unassigned) [Example 74], with 9.38.
Same read-out and setting: then `Cc1nc(-n2cc([C@H](C)c3ccc(C(F)(F)F)cc3Cl)nn2)cc(=O)[nH]1` (single isomer, unassigned) [Example 75], with 8.05.
Same read-out and setting: in the case of `Cc1nc(-c2nnn3c2CCC[C@]3(C)c2ccc(OC(F)(F)F)cc2)cc(=O)[nH]1` (single isomer, unassigned) [Example 76] it was 6.74; in that of `Cc1nc(-c2nnn3c2CCC[C@]3(C)c2ccc(OC(F)(F)F)cc2)cc(=O)[nH]1` (single isomer, unassigned) [Example 77], 5.55.
With `Cc1nc(-c2nnn3c2CCC[C@]3(C)c2ccc(C(F)(F)F)cc2C)cc(=O)[nH]1` (single isomer, unassigned) [Example 78], the pKi is 6.09.
As for `Cc1nc(-c2nnn3c2CCC[C@]3(C)c2ccc(C(F)(F)F)cc2C)cc(=O)[nH]1` (single isomer, unassigned) [Example 79], the pKi was 8.08.
Regarding `Cc1nc(-c2nnc3n2CCC[C@]3(C)c2ccc(C(F)(F)F)cc2F)cc(=O)[nH]1` (single isomer, unassigned) [Example 80], the negative-log Ki (pKi) is 5.69.
Still for that read-out and setting: in the case of `Cc1nc(-n2ncc([C@H](C)c3ccc(C(F)(F)F)cc3Cl)n2)cc(=O)[nH]1` (single isomer, unassigned) [Example 82] it was 6.66; in that of `Cc1nc(-n2ncc([C@H](C)c3ccc(C(F)(F)F)cc3Cl)n2)cc(=O)[nH]1` (single isomer, unassigned) [Example 83], 8.38; in that of `Cc1nc(-n2cnc([C@H](C)c3ccc(C(F)(F)F)cc3F)n2)cc(=O)[nH]1` (single isomer, unassigned) [Example 84], 6.65.
Still for that read-out and setting: then `Cc1nc(-n2cnc([C@H](C)c3ccc(C(F)(F)F)cc3F)n2)cc(=O)[nH]1` (single isomer, unassigned) [Example 85], with 5.92.
Same read-out and setting: in the case of `Cc1nc(-c2nnn3c2CCC[C@]3(C)c2ccc(C(F)(F)F)cc2Cl)cc(=O)[nH]1` (single isomer, unassigned) [Example 88] it was less than 5.53.
As to `COc1ccc(Cc2nc(-c3nnn4c3CCC[C@]4(C)c3ccc(C(F)(F)F)cc3F)cc(=O)[nH]2)cc1` (single isomer, unassigned) [Example 90], the pKi was 5.72.
For `COc1cccc(Cc2nc(-c3nnn4c3CCCC4(C)c3ccc(C(F)(F)F)cc3F)cc(=O)[nH]2)c1` (single isomer, unassigned) [Example 91, (S)- or (R)-6-(7-(2-Fluoro-4-(trifluoromethyl)phenyl)-7-methyl-4,5,6,7-tetrahydro-[1,2,3]triazolo[1,5-a]pyridin-3-yl)-2-(3-methoxy-benzyl)pyrimidin-4(3H)-one], the pKi is 9.25.
Still for that read-out and setting: in the case of `COc1cccc(Cc2nc(-c3nnn4c3CCCC4(C)c3ccc(C(F)(F)F)cc3F)cc(=O)[nH]2)c1` (single isomer, unassigned) [Example 92] it was 6.14.
The same measure, in the same setting: in the case of `Cc1nc(-c2nnn3c2CCCCC3(C)c2ccc(C(F)(F)F)cc2F)cc(=O)[nH]1` (single isomer, unassigned) [Example 93, (S)- or (R)-6-(8-(2-Fluoro-4-(triflouromethyl)phenyl)-8-methyl-5,6,7,8-tetrahydro-4H-[1,2,3]triazolo[1,5-a]azepin-3-yl)-2-methylpyrimidin-4(3H)-one] it was 7.17; in that of `Cc1nc(-c2nnn3c2CCCCC3(C)c2ccc(C(F)(F)F)cc2F)cc(=O)[nH]1` (single isomer, unassigned) [Example 94, (S)- or (R)-6-(8-(2-Fluoro-4-(triflouromethyl)phenyl)-8-methyl-5,6,7,8-tetrahydro-4H-[1,2,3]triazolo[1,5-a]azepin-3-yl)-2-methylpyrimidin-4(3H)-one], 7.25; in that of `CCc1ccc([C@]2(C)CCCc3c(-c4cc(=O)[nH]c(C)n4)nnn32)c(F)c1` (single isomer, unassigned) [Example 95], 8.74.
`CCc1ccc([C@]2(C)CCCc3c(-c4cc(=O)[nH]c(C)n4)nnn32)c(F)c1` (single isomer, unassigned) [Example 96]: the pKi is 6.37.
Same read-out and setting: in the case of `Cc1nc(-c2nnn3c2CCC3(C)c2ccc(C(F)(F)F)cc2F)cc(=O)[nH]1` (single isomer, unassigned) [Example 98, (S)- or (R)-6-(6-(2-Fluoro-4-(trifluoromethyl)phenyl)-6-methyl-5,6-dihydro-4H-pyrolo[1,2-c][1,2,3]triazol-3-yl)-2-methylpyrimidin-4(3H)-one] it was 6.66; in that of `Cc1nc(-c2cn(C(C)(C)c3ccc(C(F)(F)F)cc3Cl)nn2)cc(=O)[nH]1` [Example 30, 6-(1-(2-(2-chloro-4-(trifluoromethyl)phenyl)propan-2-yl)-1H-1,2,3-triazol-4-yl)-2-methylpyrimidin-4(3H)-one], 8.77; in that of `Cc1nc(-c2cn(C(C)(C)c3ccc(C(F)(F)F)cc3C)nn2)cc(=O)[nH]1` [Example 31, 2-methyl-6-(1-(2-(2-methyl-4-(trifluoromethyl)phenyl)propan-2-yl)-1H-1,2,3-triazol-4-yl) pyrimidin-4(3H)-one], 8.27.
The same measure, in the same setting: in the case of `CCc1ccc(C(C)(C)n2cc(-c3cc(=O)[nH]c(C)n3)nn2)c(C)c1` [Example 33, 6-(1-(2-(4-ethyl-2-methylphenyl)propan-2-yl)-1H-1,2,3-triazol-4-yl)-2-methylpyrimidin-4(3H)-one] it was 7.00; in that of `Cc1nc(-c2cn(C(C)(C)c3ccc(C4CC4)cc3Cl)nn2)cc(=O)[nH]1` [Example 34, 6-(1-(2-(2-chloro-4-cyclopropylphenyl)propan-2-yl)-1H-1,2,3-triazol-4-yl)-2-methylpyrimdin-4(3H)-one], 8.31.
